{"source": "patent US10150760B2", "about": "“Compounds for use in preparing heterocyclic triazole agonists of the APJ receptor” (AMGEN INC., priority 2016, dated 2018)", "tested_on": "heart failure rats", "test": "Cardiac function with APJ small molecule agonists in the presence of ACE inhibitor captopril in heart failure rats in vivo", "parameters": "species or system rat", "settings": "captopril alone, acute settings", "text": "The interaction between […] (ACE2) and Apelin biology is complicated. To investigate the interaction between the Apelin-APJ and ACE signaling pathways, we examined the improvement in cardiac function with APJ small molecule agonists in the presence of ACE inhibitor captopril in heart failure rats in vivo. […] However, in the presence of an APJ agonist, there was a shift in potency to the left with marked improvement in contractility and ejection fraction without changes in heart rate. These findings provide a new reference for the understanding of the regulation of ACE2 for the renin angiotensin aldosterone system (RAAS), independent of AT1R signaling and offer new potential drug targets for the treatment of diseases such as hypertension and heart failure. This work clearly establishes that combination of an agonist of the APJ receptor with an ARB such as losartan and/or with an ACE inhibitor such as captopril which may play an important role in providing greater efficacy in treating heart failure patients, for example in improving contractility and ejection fraction without changing the heart rate."}
{"smiles": "C[C@H](CS)C(=O)N1CCC[C@H]1C(=O)O", "note": "[Captopril, captopril]", "values": [{"measurement": "improvement in contractility or ejection fraction", "result": "does not show a marked improvement in contractility or ejection fraction"}]}
